Legend:
CYP3A4 = CYP3A4 (Homo sapiens, UniProt P08684); experiment: CYP inhibition assay, CYP3A4; settings: human liver microsomes 0.25 mg/ml, 10 μM, 15 minutes
Procedure: (§1) Metabolites of each CYP isoenzyme indicator drug produced through the reaction were analyzed by LC-MS/MS using the Shimadzu Nexera XR system and TSQ vantage (Thermo).

CYP1A2 = target: T1, CYP1A2 (Homo sapiens, UniProt P05177); experiment: CYP inhibition assay, CYP1A2; settings: human liver microsomes 0.25 mg/ml, 10 μM, 15 minutes
T1 sequence (P05177 1-516): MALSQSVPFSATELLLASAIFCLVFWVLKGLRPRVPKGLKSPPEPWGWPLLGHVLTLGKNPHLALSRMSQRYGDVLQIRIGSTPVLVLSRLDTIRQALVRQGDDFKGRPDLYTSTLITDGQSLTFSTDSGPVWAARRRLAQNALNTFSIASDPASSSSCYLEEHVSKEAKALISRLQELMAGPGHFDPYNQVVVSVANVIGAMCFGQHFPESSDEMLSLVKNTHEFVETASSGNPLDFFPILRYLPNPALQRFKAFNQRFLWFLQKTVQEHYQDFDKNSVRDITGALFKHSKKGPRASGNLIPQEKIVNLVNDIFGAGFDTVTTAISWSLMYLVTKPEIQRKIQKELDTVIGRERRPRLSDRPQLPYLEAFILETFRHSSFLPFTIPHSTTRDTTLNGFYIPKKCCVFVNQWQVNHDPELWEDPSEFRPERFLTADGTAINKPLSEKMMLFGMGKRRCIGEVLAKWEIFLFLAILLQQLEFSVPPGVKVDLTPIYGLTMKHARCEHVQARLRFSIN
Procedure: as §1

CYP2C19 = CYP2C19 (Homo sapiens, UniProt P33261); experiment: CYP inhibition assay, CYP2C19; settings: human liver microsomes 0.25 mg/ml, 10 μM, 15 minutes
CYP2C19, sequence (P33261 whole entry): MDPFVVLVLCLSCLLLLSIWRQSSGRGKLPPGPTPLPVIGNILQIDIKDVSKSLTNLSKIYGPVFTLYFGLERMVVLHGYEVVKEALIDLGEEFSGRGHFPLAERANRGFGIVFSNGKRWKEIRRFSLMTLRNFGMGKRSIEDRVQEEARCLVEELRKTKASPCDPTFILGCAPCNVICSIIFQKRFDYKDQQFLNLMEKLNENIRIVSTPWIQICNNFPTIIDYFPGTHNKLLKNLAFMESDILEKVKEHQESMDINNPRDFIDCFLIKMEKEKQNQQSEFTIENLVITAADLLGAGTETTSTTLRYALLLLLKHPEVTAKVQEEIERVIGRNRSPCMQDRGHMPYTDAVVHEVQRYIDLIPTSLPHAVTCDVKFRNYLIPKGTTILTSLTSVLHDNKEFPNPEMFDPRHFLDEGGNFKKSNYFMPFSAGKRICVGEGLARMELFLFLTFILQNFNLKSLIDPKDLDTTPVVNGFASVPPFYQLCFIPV
Procedure: as §1

CYP2D6 = CYP2D6 (Homo sapiens, UniProt P10635); experiment: CYP inhibition assay, CYP2D6; settings: human liver microsomes 0.25 mg/ml, 10 μM, 15 minutes
CYP2D6, sequence (P10635 whole entry): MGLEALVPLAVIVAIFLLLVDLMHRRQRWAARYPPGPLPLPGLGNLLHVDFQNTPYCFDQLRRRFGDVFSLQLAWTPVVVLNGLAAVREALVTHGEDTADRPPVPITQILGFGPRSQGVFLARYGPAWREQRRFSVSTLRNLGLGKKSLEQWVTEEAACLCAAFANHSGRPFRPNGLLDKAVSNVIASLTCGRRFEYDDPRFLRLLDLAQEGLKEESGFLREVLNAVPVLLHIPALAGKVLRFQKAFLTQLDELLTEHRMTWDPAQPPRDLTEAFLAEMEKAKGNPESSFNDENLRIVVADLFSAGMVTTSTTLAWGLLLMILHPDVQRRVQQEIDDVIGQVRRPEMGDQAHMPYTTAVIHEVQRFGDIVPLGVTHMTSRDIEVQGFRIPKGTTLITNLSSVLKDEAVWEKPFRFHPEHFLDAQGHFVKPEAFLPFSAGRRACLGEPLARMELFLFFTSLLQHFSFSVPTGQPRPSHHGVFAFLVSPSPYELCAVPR
Procedure: as §1

AMPK phosphorylation = AMPK phosphorylation activity in mouse adipocytes (Western blot); format: cell-based; settings: 3T3-L1, 10 μM, 24 hours, Western blot; APN5 = 1.0
Procedure: There were confirmed effects of the peptoid derivative of the present disclosure on the expression and receptor activity of adiponectin in mouse adipocytes as a main adiponectin production site. A mouse adipocyte cell line 3T3-L1 was treated with each of the peptoid derivatives of the present disclosure at a concentration of 10 μM and cultured for 24 hours, and then cells were obtained. Thereafter, the protein was extracted and the effect of adiponectin on AMPK phosphorylation, which was responsible for the main downstream signaling, was confirmed by Western blot.

CYP3A4, sequence (P08684 whole entry): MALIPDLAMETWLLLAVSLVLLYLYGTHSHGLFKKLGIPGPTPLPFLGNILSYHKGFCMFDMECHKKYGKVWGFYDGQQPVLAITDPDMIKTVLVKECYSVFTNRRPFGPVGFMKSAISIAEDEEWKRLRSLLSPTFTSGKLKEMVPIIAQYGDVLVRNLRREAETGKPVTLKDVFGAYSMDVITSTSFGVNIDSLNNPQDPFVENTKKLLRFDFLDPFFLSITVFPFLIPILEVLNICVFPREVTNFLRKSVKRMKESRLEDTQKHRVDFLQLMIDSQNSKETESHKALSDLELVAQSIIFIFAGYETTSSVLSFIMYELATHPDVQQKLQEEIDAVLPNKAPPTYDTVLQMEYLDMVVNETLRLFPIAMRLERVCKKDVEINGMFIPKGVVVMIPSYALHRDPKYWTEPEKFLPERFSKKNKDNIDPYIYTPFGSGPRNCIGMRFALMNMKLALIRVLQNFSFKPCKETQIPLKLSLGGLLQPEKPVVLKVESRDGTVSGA

## CC(C)C[C@H](NC(=O)CN)C(=O)N[C@@H](Cc1ccc(O)cc1)C(=O)N[C@@H](Cc1ccc(O)cc1)C(=O)N[C@@H](Cc1ccccc1)C(=O)O [APN5, NH2-GLYYF-OH]
CYP3A4
  CYP inhibition (% of control activity) CYP3A4: 82.9 % of control activity
CYP1A2
  CYP inhibition (% of control activity) CYP1A2: 88.8 % of control activity
CYP2C19
  CYP inhibition (% of control activity) CYP2C19: 98.5 % of control activity
CYP2D6
  CYP inhibition (% of control activity) CYP2D6: 92.3 % of control activity
AMPK phosphorylation
  AMPK phosphorylation activity (fold change): 1.0 fold change

From patent publication US20250051390A1, “NOVEL ADIPONECTIN-DERIVED PEPTOID DERIVATIVE AND USE THEREOF” (SEOUL NATIONAL UNIVERSITY HOSPITAL, priority 2021, published 2025)
